Assay results taken from the RepoRT retention time repository (doi:10.1021/acs.analchem.2c02893).

Assay: RP, Thermo Scientific Acclaim RSLC 120 C18, 100 × 2.1 mm, 2.2 µm, 30 °C, 0.2 mL/min, estimated dead time 1.1 min; A: 90% water + 10% methanol + 0.01% formic acid + 5 mM ammonium formate, pH 3.61; B: methanol + 0.01% formic acid + 5 mM ammonium formate, pH 3.61; gradient (min/%B) 0/1 1/1 2/39 13/99.9 15/99.9 15.1/1 20.1/1
Conditions: stereoisomer not certain

SMILES	LC retention time
CC1(C)C(C=C(Cl)Cl)C1C(=O)OC(C#N)c1ccc(F)c(Oc2ccccc2)c1 (stereo unspecified) [Cyfluthrin (Baythroid)]	13 min
CC(=O)Nc1ccc(S(=O)(=O)Nc2cc(C)on2)cc1 [Sulfamethoxazole-N4-Acetyl  (Impurity A)]	5.28 min
CC(C)N(C(=O)SCC(Cl)=CCl)C(C)C [Diallate]	11.8 min
COC(=O)C1=CCCN(C)C1 [Arecoline]	1.74 min
O=C(NC12CC3CC(CC(C3)C1)C2)c1nn(CCCCCF)c2ccccc12 [AKB48-5F (5F-APINACA)]	12.9 min
COC1CC(OC2C(C)OC(OC3C(C)=CCC4CC(CC5(C=CC(C)C(C(C)C)O5)O4)OC(=O)C4C=C(C)C(O)C5OCC(=CC=CC3C)C45O)CC2OC)OC(C)C1O (stereo unspecified) [AvermectinB1b (Abamectin)]	13.4 min
CC(=O)Nc1c(I)c(C(=O)O)c(I)c(C(=O)NCCO)c1I [Ioxitalamin acid]	2.09 min
Nc1ccc([N+](=O)[O-])cc1C(=O)c1ccccc1 [Benzophenone -2-Amino-5-nitro]	8.99 min
CC(COc1ccccc1Cc1ccccc1)N1CCCCC1 (stereo unspecified) [Benproperine]	8.32 min
CC(C)(C)NCC(O)COc1cccc2c1SCCC2 (stereo unspecified) [Tertatolol]	6.76 min
O=C(C1CCCCC1)N1CC(=O)N2CCc3ccccc3C2C1 (stereo unspecified) [Praziquantel]	9.32 min
CC(=O)Nc1c(I)c(NC(C)=O)c(I)c(C(=O)O)c1I [Diatrizoate (Amidotrizoate acid)]	2.79 min
CCC(c1cccc(O)c1)C(C)CNC (stereo unspecified) [Tapentadol-N-Desmethyl]	5.14 min
CN1CCC23c4c5ccc(OCCN6CCOCC6)c4OC2C(O)C=CC3C1C5 (stereo unspecified) [Pholcodine]	2.73 min
COc1ccc(CC(C)N)cc1OC (stereo unspecified) [DMA (3-4-)]	3.94 min
CN(C)CC=C(c1ccc(Br)cc1)c1cccnc1 [Zimelidine]	6.56 min
CCOCCOC(=O)C(C)Oc1ccc(Oc2ncc(C(F)(F)F)cc2Cl)cc1 (stereo unspecified) [Haloxyfop ethoxyethyl ester]	12.2 min
CCOC1Oc2ccc(OS(C)(=O)=O)cc2C1(C)C (stereo unspecified) [Ethofumesate]	9.14 min
OC(CCN1CCCC1)(c1ccccc1)C1CCCCC1 (stereo unspecified) [Procyclidine]	7.8 min
COP(N)(=S)Oc1ccccc1C(=O)OC(C)C (stereo unspecified) [Isocarbophos]	8.32 min
CC(C1=C(CCN(C)C)Cc2ccccc21)c1ccccn1 (stereo unspecified) [Dimetindene]	6.86 min
Cc1cccc(C)c1NC(=O)C1CCCCN1C (stereo unspecified) [Mepivacaine]	4.66 min

SMILES	LC retention time
CCC[N+]12C(O)C(CC)C3CC1C1N(C)c4ccccc4C14CC2C3C4O (stereo unspecified) [Prajmaline]	6.07 min
CC(=O)OC1(C(C)=O)CCC2C3CC(C)C4=CC(=O)CCC4(C)C3CCC21C (stereo unspecified) [Medroxyprogesteroneacetate]	11 min
CC(C)Nc1nc(N)nc(Cl)n1 [Atrazine-desethyl]	5.73 min
C=CCC1=C(C)C(OC(=O)C2C(C=C(C)C(=O)OC)C2(C)C)CC1=O (stereo unspecified) [Allethrin II]	12.3 min
CCNC(=O)NC(=O)C(C#N)=NOC [Cymoxanil]	5.6 min
CCCCCn1cc(C(=O)Cc2ccccc2Cl)c2ccccc21 [JWH-203]	12.2 min
CNCCOC(c1ccccc1)c1ccccc1C (stereo unspecified) [Orphenadrine-Nor (Tofenacin. Elamol)]	7.54 min
CCC(C)N(C(=O)SCc1ccccc1)C(C)CC (stereo unspecified) [Tiocarbazil]	12.8 min
CN(C)CCOc1ccc(C(=C(CCCl)c2ccccc2)c2ccccc2)cc1 [Toremifene]	10.5 min
c1ccc2c(c1)Cc1cccnc1N1CCNCC21 (stereo unspecified) [Mirtazapine-Desmethyl (normirtazapine)]	5.31 min
CCCCCn1cc(C(=O)Oc2cccc3cccnc23)c2ccccc21 [PB-22]	11.9 min
NC(=O)N1c2ccccc2C=Cc2ccccc21 [Carbamazepine]	7.36 min
Cc1ccc(C(C)NC(=O)C(NC(=O)OC(C)C)C(C)C)cc1 (stereo unspecified) [Iprovalicarb]	9.82 min
CC12C=CC(=O)C=C1CCC1C2C(=O)CC2(C)C1CCC2(O)C(=O)CO (stereo unspecified) [Prednisone]	7.85 min
O=C(CCCN1CCC(n2c(=O)[nH]c3ccccc32)CC1)c1ccc(F)cc1 [Benperidol]	5.96 min
CCCCOC(=O)C(C)Oc1ccc(Oc2ccc(C(F)(F)F)cn2)cc1 (stereo unspecified) [Fluazifop-p-butyl]	12 min
CCNC1(c2cccc(OC)c2)CCCCC1=O (stereo unspecified) [Methoxetamine]	4.93 min
Cc1noc(NS(=O)(=O)c2ccc(N)cc2)c1C [Sulfisoxazole]	4.71 min
NCC(O)COc1ccccc1C(=O)CCc1ccccc1 (stereo unspecified) [Propafenone-N-Desmethyl]	7.09 min
Cc1cc(=O)[nH]c(C(C)C)n1 [Pyrimidinol]	4.49 min
CCCc1cc(C(N)=S)ccn1 [Protionamide]	6.36 min
C#CC1(O)C=CC2C3CCC4=CC(=O)CCC4C3CCC21CC (stereo unspecified) [Gestoden]	9.46 min

SMILES	LC retention time
c1ccc2sc(NC3CCCCC3)nc2c1 [N-Cyclohexyl-2-benzothiazol-amine]	10.9 min
c1cnc2cc3c(cc2n1)C1CNCC3C1 [Varenicline]	3.63 min
Nc1ccc(S(=O)(=O)Nc2ncccn2)cc1 [Sulfadiazine]	3.48 min
CC(CCc1ccccc1)NCC(O)c1ccc(O)c(C(N)=O)c1 (stereo unspecified) [Labetalol]	5.74 min
CCS(=O)Cc1ccccc1OC(=O)NC (stereo unspecified) [Ethiofencarb-sulfoxide]	4.7 min
CCCCCn1nc(C(=O)c2cccc3ccccc23)c2ccccc21 [THJ-018]	13.1 min
CCN(CC)CCN1C(=O)CN=C(c2ccccc2F)c2cc(Cl)ccc21 [Flurazepam]	6.61 min
Cc1ccc(C(=CCN2CCCC2)c2cccc(C=CC(=O)O)n2)cc1 [Acrivastine]	6.66 min
CC=CCC1=C(C)C(OC(=O)C2C(C=C(C)C)C2(C)C)CC1=O (stereo unspecified) [Pyrethrins: Cinerin I]	12.9 min
CCOC(=O)C1CC(=O)C(=C(O)C2CC2)C(=O)C1 (stereo unspecified) [Trinexapac-ethyl]	8.45 min
CCOC(=O)C1(c2ccccc2)CCN(CCC(C#N)(c2ccccc2)c2ccccc2)CC1 [Diphenoxylate]	10.4 min
CC12CCC3C4CCC(=O)C=C4CCC3C1CCC2O (stereo unspecified) [Nandrolone]	9.37 min
CN1C(C(=O)Nc2ccccn2)=C(O)c2ccccc2S1(=O)=O [Piroxicam]	6.84 min
CCC(N)Cc1ccc2c(c1)OCO2 (stereo unspecified) [BDB]	4.73 min
CCCC(C(=O)c1ccccc1)N1CCCC1 (stereo not drawn) [PVP- Alpha]	5.08 min
NC(N)=NN=Cc1c(Cl)cccc1Cl [Guanabenz]	5.61 min
Cc1c(C(C)C)c(=O)n(-c2ccccc2)n1C [Propyphenazone]	7.23 min
NS(=O)(=O)c1cc2c(cc1Cl)NCNS2(=O)=O [Hydrochlorothiazide (NH4)]	3.24 min
CCCCCOC(=O)Nc1nc(=O)n(C2OC(C)C(O)C2O)cc1F (stereo unspecified) [Capecitabin]	7.59 min
CCCCCn1nc(C(=O)Oc2cccc3cccnc23)c2ccccc21 [NPB-22]	11.4 min
Cn1nnc2ccccc21 [Benzotriazole -1-Methyl]	5.11 min
O=c1oc2ccccc2c(O)c1C1CC(c2ccc(OCc3ccc(C(F)(F)F)cc3)cc2)Cc2ccccc21 (stereo unspecified) [Flocoumafen]	12.4 min

SMILES	LC retention time
CN(C)CCc1c[nH]c2ccc(Cn3cncn3)cc12 [Rizatriptan]	3.49 min
CCOP(=O)(SC(C)CC)SC(C)CC (stereo unspecified) [Cadusafos]	11.5 min
O=C1CC2(CCCCC2)CN1 [3,3-pentamethylene-4-butyrolactam]	6.64 min
COC(=O)NS(=O)(=O)c1ccc(N)cc1 [Asulam]	3.41 min
Nc1cccc2cc(S(=O)(=O)O)ccc12 [5-Aminonaphthalene-2-sulfonic acid]	3.27 min
OC(c1cc(C(F)(F)F)nc2c(C(F)(F)F)cccc12)C1CCCCN1 (stereo unspecified) [Mefloquine]	8.59 min
Cc1ccc(NS(=O)(=O)N(C)C)cc1 [DMST (N.N-Dimethyl-N'-p-tolylsulphamide)]	7.25 min
COCCOCCOCCOC [Triglyme]	4.28 min
CNCCCC1c2ccccc2C=Cc2ccccc21 [Protriptyline]	7.99 min
CN(C)S(=O)(=O)c1ccc2c(c1)N(CCCN1CCC(CCO)CC1)c1ccccc1S2 [Pipotiazine]	7.39 min
OCc1cc(C(O)CNCCCCCCOCCCCc2ccccc2)ccc1O (stereo unspecified) [Salmeterol]	8.83 min
Cn1c(=O)c2c(ncn2CC(O)CO)n(C)c1=O (stereo unspecified) [Diprophylline]	3.76 min
CN(C)CCc1c[nH]c2cccc(O)c12 [Psilocin]	3.29 min
NC(N)=Nc1nc(CSCCC(N)=NS(N)(=O)=O)cs1 [Famotidine]	3.24 min
Fc1ccc(C2(Cn3cncn3)OC2c2ccccc2Cl)cc1 (stereo unspecified) [Epoxiconazole]	10.3 min
CCCCCCCCCCCCCCCC[N+](C)(C)C [Hexadecyltrimethylammonium]	12.9 min
C=C(Cl)CSC(=S)N(CC)CC [Vegadex (Sulfallate)]	11.1 min
CC1(C)OCC2OC3(C(=O)O)OC(C)(C)OC3C2O1 (stereo unspecified) [Dikegulac]	4.76 min
CC(=O)OCC(=O)C12N=C(C)OC1CC1C3CCC4=CC(=O)C=CC4(C)C3C(O)CC12C (stereo unspecified) [Deflazacort]	9.35 min
COc1nccnc1NS(=O)(=O)c1ccc(N)cc1 [Sulfalene]	4.44 min
